# Earlier results in patent publication US20070281020A1, “PHARMACEUTICAL COMPOSITIONS FOR SUSTAINED RELEASE OF PHENYLEPHRINE” (priority 2006, published 2007).
# Details: active metabolite of loratadine
smiles,measurement,value
Clc1ccc2c(c1)CCc1cccnc1C2=C1CCNCC1 [desloratadine],half-life (t1/2),15 to 19 h
